Consider 5 compounds from patent US6458811B1, “Benzothiophenes formulations containing same and methods” (Eli Lilly and Company, priority 1996, dated 2002).

For one series, the system named is MCF-7 cells. As to conditions: MCF-7 cells in cell culture; cited from earlier work.
The test system of series [1] is uterotrophic response to estrogen. As to conditions: immature rats, versus tamoxifen; cited from earlier work.
For the next series, the system named is uterotrophic response. Particulars: OVX rats; cited from earlier work.
Series [2] can be described thus: Particle size distribution by laser light diffraction (Horiba LA900). The class given is physicochemical. Particulars: hydrochloride. The protocol: In preparing the particulate compound of the invention a compound of formula I, in its raw state, is first characterized for size using an instrument adapted to measure equivalent spherical volume diameter, that is to say a Horiba LA900 Laser Scattering Particle Size Distribution Analyzer or equivalent instrument.
Sample is added to the dispersant until an acceptable level of laser light obscuration achieved at which point the particle size distribution is measured. […] The dispersant solution was filtered through a 0.2 micron microporous membrane filter to provide the necessary particle-free suspending dispersant.
Within five minutes of the preparation of the dispersion, triplicate particle size measurements were performed. Triplicate measurements are effected as a minimum check a) to produce more reliable measurements and b) to check the equivalent sampling of the suspended material has been reproducible i.e., the suspension has not settled.
From this, the mean equivalent spherical volume diameter value was derived (50% undersize value) together with the standard deviation of the distribution calculated as above.

The nature of series [3]: Surface area by nitrogen adsorption (BET). In kind it is physicochemical. As to conditions: bulk lot.
Series [4] is described as follows: Dissolution of bulk lots handfilled into capsules, 0.1% aqueous polysorbate 80, USP Apparatus II. In kind it is physicochemical. Particulars: hydrochloride; for % Dissolved: 60.0 mg in capsule; for % Dissolved at 10 Minutes: Table 8, 10 minutes; for % Dissolved at 30 Minutes: Table 8, 30 minutes. The protocol: Data was collected at 10, 20, 30 and 45 minutes to produce a dissolution profile.

Series [5] in a line: Plasma AUC of unconjugated raloxifene in rats dosed in diet. As to conditions: 0.4% w/w in diet for seven days, hydrochloride. The class given is in vivo, Fischer 344 rats. The protocol: In an attempt to evaluate these differences upon in vivo absorption, a study was conducted in Fischer 344 rats.

Structures can show the parent of a compound that is named as a salt.

In the case of `O=C(c1ccc(OCCN2CCCCC2)cc1)c1c(-c2ccc(O)cc2)sc2cc(O)ccc12` [Raloxifene, 6-hydroxy-2-(4-hydroxyphenyl)-3-[4-(2-piperidinoethoxy)benzoyl]benzo[b]-thiophene], the “inhibition of estrogen-dependent proliferation” value in the series on MCF-7 cells is recorded as “inhibits estrogen-dependent proliferation”. Moreover, the “antagonism of the uterotrophic response to estrogen” value in series [1] was “more effective than tamoxifen”. Further, the uterotrophic response result in the series with uterotrophic response is reported as “only minimal uterotrophic response that was not dose-dependent”.

As to `O=C(c1ccc(OCCN2CCCCC2)cc1)c1c(-c2ccc(O)cc2)sc2cc(O)ccc12` [Lot #3, raloxifene hydrochloride], the mean particle size in series [2] (as restated) came out at 23.3 microns. Besides, the 90% less than in series [2] (bulk lots of Table 6, Ball Milled bulk lot) is recorded as 55.3 μm; in series [2] (bulk lots of Table 6, Slurry Milled bulk lot), 89 μm. Further, the “Surface Area” value in series [3] (hydrochloride) is on record as 2.10 m^2/gm. The “% Dissolved” value in series [4] (10 min) worked out at 31%; in series [4] (20 min), 45%; in series [4] (30 min) it was 54%; in series [4] (45 min), 64%. In series [4], the “% Dissolved at 10 Minutes” value was 31%. Besides, the “% Dissolved at 30 Minutes” value in series [4] is given as 55%. Also, in series [5], the AUC came to 5743 ng·h/mL.

In the case of `O=C(c1ccc(OCCN2CCCCC2)cc1)c1c(-c2ccc(O)cc2)sc2cc(O)ccc12` [Lot #4, raloxifene hydrochloride], the “% Dissolved” value in series [4] (10 min) worked out at 15%; in series [4] (20 min), 27%; in series [4] (30 min), 35%; in series [4] (45 min), 49%. Also, the “% Dissolved at 10 Minutes” value in series [4] was 15%. The “% Dissolved at 30 Minutes” value in series [4] was 35%. Also, the AUC in series [5] amounted to 3329 ng·h/mL.

Compound `O=C(c1ccc(OCCN2CCCCC2)cc1)c1c(-c2ccc(O)cc2)sc2cc(O)ccc12` [Lot #1, raloxifene hydrochloride] displayed a 90% less than in series [2] (bulk lots of Table 6) of 6.8 μm. The “mean particle size” value in series [2] (bulk lots of Table 6) is given as 3.9 μm. The “Surface Area” value in series [3] (hydrochloride) is on record as 6.09 m^2/gm. The “% Dissolved” value in series [4] (10 min) amounted to 51%; in series [4] (20 min), 68%; in series [4] (30 min), 78%; in series [4] (45 min) it was 88%. In series [4], the “% Dissolved at 10 Minutes” value is given as 50%. For the same compound, in series [4], the “% Dissolved at 30 Minutes” value was 78%. Further, the AUC in series [5] amounted to 10056 ng·h/mL.

On to `O=C(c1ccc(OCCN2CCCCC2)cc1)c1c(-c2ccc(O)cc2)sc2cc(O)ccc12` [Lot #2, raloxifene hydrochloride], for which the mean particle size in series [2] (as restated) was 8.4 microns; in series [2] (bulk lots of Table 6), 8.4 μm. Moreover, the 90% less than in series [2] (bulk lots of Table 6) turned out to be 13.9 μm. The “Surface Area” value in series [3] (listed as #2, hydrochloride) was found to be 2.28 m^2/gm; in series [3] (listed as lot #2, hydrochloride), 2.28 m^2/gm. The “% Dissolved” value in series [4] (10 min) is recorded as 41%; in series [4] (20 min) it was 60%; in series [4] (30 min), 68%; in series [4] (45 min), 74%. Moreover, in series [4], the “% Dissolved at 10 Minutes” value was 41%. For the same compound, the “% Dissolved at 30 Minutes” value in series [4] is 68%. Moreover, the AUC in series [5] came out at 8037 ng·h/mL.
